Where two headings read alike, the source gives them in different places. Where only a bound is given, the exact number is not on record here.

Assay [1] has as its system P. aeruginosa PAO1 biofilm. Put plainly: Minimum biofilm eradication concentration against established biofilm (FIG. 4). The assay is classed as cell-based, Pseudomonas aeruginosa.
The subject of assay [2] is Burkholderia cepacia NCTC10744. Nature of the assay: MIC100 and FIC of cysteamine and tobramycin, MH broth (CLSI) and artificial sputum medium. The assay is classed as cell-based. Particulars: read-out: MIC100, agent alone. The protocol: (§1) Both the bacterial inoculum and the antimicrobial agents, including the compounds structurally related to cysteamine, were added simultaneously to the plates. The plates were incubated at 37° C. for 24 h and the optical density was read at 625 nm on a microtitre plate reader (BioTek Powerwave XS, Winooski, USA). The MIC was obtained as the lowest concentration of antimicrobial showing total inhibition of bacterial growth.
(§2) The FIC corresponds to an interaction coefficient indicating whether the combination of antimicrobial agents is synergistic, additive, antagonist or neutral. The FIC is determined by comparing the activity of an agent in combination (MIC of agent A+agent B) with the activity of the agent alone (MIC of agent A or agent B) as follow (Singh et al., 2000): FIC=MICA[combination]/MICA[alone]+MICB[combination]/MICB[alone]
(§3) The complex pathophysiology of CF is characterized by airway obstruction caused by abnormal mucus secretion and infection, with 60-80% of patients being chronically infected with the biofilm-forming bacteria Pseudomonas aeruginosa (George et al., 2009). With a prevalence of up to 10% in adult CF patients, B. cepacia complex is a rare but major concern due to its high virulence, morbidity and transmissibility (O'Malley, 2009; Brüssow, 2012). We tested the antimicrobial activity of cysteamine-tobramycin combinations in artificial sputum medium (Yang, et al., 2011) against 4 P. aeruginosa (PAO1, ATCC27853, DSMZ1128 and DSMZ1299) and 2 B. cepacia complex strains (NCTC10743 and NCTC10744).

In assay [3] the test system is Burkholderia cepacia NCTC10743. Described as above. The assay is classed as cell-based. As for the experimental part: as §1, §2, §3
Assay [4] relates to P. aeruginosa ATCC 27853. Nature of the assay: MIC and FIC of antibiotics with cysteamine, environments mimicking a CF lung. It counts as cell-based, Pseudomonas aeruginosa. The protocol:
as §1, §2
The range of concentrations of antimicrobial agents was 0-10 μg/ml.

Assay [5] relates to P. aeruginosa PAO1 planktonic cells. Put plainly: MIC in physiologically-relevant ionic concentrations (FIG. 7). The assay is classed as cell-based, Pseudomonas aeruginosa. The settings on record: in the presence of Ca2+ and in the presence of DNA. The protocol:
Bacterial growth was followed over a 24 h period and absorbance read using a BioTek microtitre plate reader at 625 nm. Total bacterial growth inhibition was retained in the presence of NaCl, CaCl2 or DNA and at two-fold the normal MIC100 in the presence of mucin. Tobramycin activity was inhibited in the presence of the divalent cation ca^2+ and in the presence of the anionic polymer DNA. […] A similar method as described above (1.4) was used for the determination of the antimicrobial activity of cysteamine (Lynovex®) in the presence of high ionic concentrations. […] Bacterial growth was followed over a 24 h period and absorbance read using a BioTek microtitre plate reader at 625 nm.

Assay [6] has as its system 4 P. aeruginosa (PAO1, ATCC27853, DSMZ1128 and DSMZ1299) and 2 B. cepacia complex strains (NCTC10743 and NCTC10744). Put plainly: microbe, parasite or virus in culture. It counts as cell-based, Pseudomonas aeruginosa; Burkholderia cepacia complex. The settings on record: all strains.
Source text: as §3

As to `NC[C@H]1O[C@H](O[C@H]2[C@H](O)[C@@H](O[C@H]3O[C@H](CO)[C@@H](O)[C@H](N)[C@H]3O)[C@H](N)C[C@@H]2N)[C@H](N)C[C@@H]1O` [Tobramycin, reference compound], in assay [1], the “minimum biofilm eradication concentration (MBEC), agent alone” value was 4 µg/mL. The MIC in assay [2] (NCTC10744, B. cepacia NH10744, ASM (Artificial Sputum Medium)) is above 16 µg/mL; in assay [2] (NCTC10744, B. cepacia NH10744, CLSI), above 16 µg/mL; in assay [3] (NCTC10743, B. cepacia NCTC10743, FIG. 6, read-out: MIC100, agent alone) it was above 16 µg/mL; in assay [3] (NCTC10743, B. cepacia NCTC10743, in both media (MH broth and ASM), FIG. 11, read-out: MIC100, agent alone) it was above 16 µg/mL; in assay [3] (NCTC10743, B. cepacia NH10743, ASM (Artificial Sputum Medium), read-out: MIC100, agent alone), above 16 µg/mL; in assay [3] (NCTC10743, B. cepacia NH10743, CLSI, read-out: MIC100, agent alone) it was above 16 µg/mL. Further, the “MIC upon administration with cysteamine compared to administration alone” value in assay [4] (environments mimicking those found in a CF lung) is “greatly reduced”. Also, the “antimicrobial effect in combination with cysteamine” value in assay [4] (mucolytic environment) was “maintained”. In assay [5], the Tobramycin activity result is “inhibited”. Moreover, in assay [6], the “tobramycin activity in the presence of cysteamine” value was “enhanced”.

These data come from patent US11020414B2, “Antimicrobial compositions with cysteamine” (priority 2010, dated 2021).
